Measured values reported in patent US20230374141A1, “COMBINATION THERAPY FOR ALPORT RENAL DISEASE” (Father Flanagan's Boys' Home Doing Business as Boys Town …, priority 2020, published 2023).
No end group written: not given here.

What was measured:
α1 null Alport mice = test: Proteinuria (Bradford assay, normalized to urinary creatinine) in α1 null Alport mice; format: in vivo; conditions: ramipril-treated vs untreated α1-null Alport mice; total protein normalized to urinary creatinine
Method: FIG. 1. […] Urine was collected from the indicated treatment groups at the indicated ages. Total protein was measured by Bradford assay and normalized to urinary creatinine.
(§1) Autosomal Alport mice or al integrin null Alport (DKO) mice (both on the 129 Sv background) were given straight water or treated with ramipril (10 mg/kg/day in drinking water) starting at 3 weeks of age. Proteinuria (FIG. 1) and lifespan (FIG. 2) were measured. We were surprised to see the improvement of lifespan from 20 weeks in ramipril-treated Alport mice to >30 weeks in ramipril-treated DKO mice. Tripling the lifespan of the Alport mouse model (which lives to on average 10 weeks of age as is evident in FIG. 2) is unprecedented in the Alport field. Integrin α1-null Alport (DKO) mice treated with ramipril live twice as long as untreated DKO mice and 3 times as long as untreated Alport mice. Animals from the indicated treatment groups were allowed to live until they lost >10% of their peak body weight and then euthanized (a humane endpoint, considered age of death). DKO mice show a 60% increase in lifespan. […] If translated to humans (as did ramipril treatment starting at a young age) this therapy could portend survival to 60-70 years of age for Alport patients with severe mutations.

Autosomal Alport mice = test: Lifespan of ramipril-treated autosomal Alport mice; format: in vivo; conditions: ramipril 10 mg/kg/day in drinking water from 3 weeks of age, 129 Sv, humane endpoint >10% loss of peak body weight
Method: as §1

[1] = tested on: al integrin null Alport (DKO) mice; test: Lifespan of ramipril-treated α1 integrin null Alport (DKO) mice; format: in vivo
Method: as §1

DKO mice [2] = test: Dual immunofluorescence of glomeruli for mesangial proteins in the GBM of DKO mice; format: in vivo
Excerpt: FIGS. 3A-3F are color dual immunofluorescence confocal images of glomeruli stained with antibodies against laminin α5 (a GBM marker) and laminin α2. FIGS. 3A-3C are untreated DKO mice. FIGS. 3D-3F are DKO mice treated with Ramipril. FIGS. 3A and 3D show laminin α5 data. FIGS. 3B and 3E show laminin α2 data. FIGS. 3C and 3F show a merge of the laminin α5 and laminin α2 data.
FIGS. 4A-4F are color dual immunofluorescence confocal images of glomeruli stained with antibodies against nidogen (a GBM marker) and collagen III. FIGS. 4A-4C are untreated DKO mice. FIGS. 4D-4F are DKO mice treated with Ramipril. FIGS. 4A and 4D show nidogen data. FIGS. 4B and 4E show collagen 3 α1 data. FIGS. […] show a merge of the nidogen and collagen 3 α1 data.
This evidence has obvious and important translational value. By preventing the invasion of the glomerular capillaries by mesangial filopodia, the deposition of mesangial proteins in the GBM is prevented. This prevents podocyte injury that is caused by the mesangial matrix.
If the ECM deposition in the GBM is indeed a significant contributor to glomerular pathology we would expect it would be delayed in the ramipril-treated DKO mice. To determine if this was indeed the case, we performed immunohistochemical analysis for laminin 211 dual stained with the GBM marker laminin α5. Specifically, Duan immunofluorescence analysis was performed on cryosections from 20 and 25 week old DKO/ramipril mice. Sections were immunostained using antibodies for laminin 211 and laminin α5 (a GBM marker). […] Between 20 and 25 weeks of age, however, GBM localization of laminin 211 became widespread as depicted in FIGS. 6A-6F. FIGS. 6A-6C are the 20-week data and FIGS. 6D-6F are the 25-week data.

DKO mice [3] = test: Glomerular filtration rate, MediBeacon transdermal LED approach, DKO mice; format: in vivo; conditions: ramipril-treated DKO mice, 25 weeks relative to 20 weeks of age; two mice
Method: Glomerular filtration rates (GFR) were measured using the MediBeacon (St Louis, MO) transdermal LED approach, which allows serial measurements to be conducted in the same animals. […] Serial GFR measures were made using two ramipril-treated DKO mice. GFR measures were at 20 and 25 weeks of age. Additional mice at additional timepoints of measure (to 30 weeks) will be added as part of the research plan to establish statistical significance.

mesangial cells = test: Filopodia formation in cultured mesangial cells; format: cell-based
Excerpt: Thus, it appears that the al-null mesangial cells are refractive to activation of CDC42, which is consistent with the markedly attenuated effect on mesangial filopodial invasion, explaining why al integrin blockade attenuates ECM-mediated podocyte injury.

[4] = ramipril-treated DKO mice at 10 weeks of age, untreated DKO had a significant amount

CCOC(=O)[C@H](CCc1ccccc1)N[C@@H](C)C(=O)N1[C@H](C(=O)O)C[C@@H]2CCC[C@@H]21 [ramipril]
proteinuria (α1 null Alport mice): markedly reduced
lifespan (age of death) (Autosomal Alport mice): 20 weeks
lifespan (age of death) ([1]; ramipril 10 mg/kg/day in drinking water from 3 weeks of age, α1 integrin null Alport (DKO) mice, 129 Sv): > 30 weeks
lifespan relative to untreated Alport mice ([1]; ramipril-treated DKO mice): 3 times
lifespan relative to untreated DKO mice ([1]; ramipril-treated DKO mice): twice as long
collagen III in the GBM (DKO mice [2]; [4]): no laminin 211 or collagen III in the GBM
laminin 211 in the GBM (DKO mice [2]; [4]): no laminin 211 or collagen III in the GBM
GBM accumulation of laminin 211 (DKO mice [2]; ramipril-treated DKO mice, before 20 weeks of age): did not observe any significant GBM accumulation
GBM localization of laminin 211 (DKO mice [2]; ramipril-treated DKO mice, between 20 and 25 weeks of age): widespread
GFR (DKO mice [3]): marked reduction

endothelin-1: stimulus of filopodial formation in mesangial cells (CSCSSLMDKECVYFCHLDIIW; ends and bridges not checked; cysteine pairing not given here; UniProt P05305 53-73, looked up)
formation of filopodia (mesangial cells; wild type mesangial cells): activates the formation of filopodia
formation of filopodia (mesangial cells; α1-null mesangial cells): do not respond
